{"source": "patent US20110028504A1", "about": "“Formulation of radioprotective alpha beta unsaturated aryl sulfones” (ONCONOVA THERAPEUTICS, INC., priority 2005, published 2011)", "key": {"[1]": {"test": "pH solubility testing in McIlvaine type buffer", "type": "physicochemical", "conditions": "thermodynamic from solid, read-out: Observed Solubility (C5)", "experimental": "The solubility of ON.1210.Na salt is tested in McIlvaine type buffer with 0.1 M ionic strength. The buffers are prepared using the recipe mentioned in Table 17 The final pH is adjusted using 0.1N sodium hydroxide or 0.1N hydrochloric acid until the pH is within ±0.1 pH units of the target pH. The pKa of the drug calculated from pH-solubility study is depicted in Table 19. The solubility of the ON.1210.Na salt is tested in a McIlvaine type buffer with 0.1 M ionic strength. The buffers are prepared using the recipe mentioned in Table 16 using various volumes of 0.15 M citric acid monohydrate, and 0.2 M sodium phosphate dibasic, 12 hydrate. The final pH is adjusted using 0.1N sodium hydroxide or 0.1N hydrochloric acid until the pH is within ±0.1 pH units of the target pH. The samples for the pH solubility study are prepared by adding 10-20 mg of ON.1210.Na salt to a 4 mL vial. Then 1 mL of the appropriate pH buffer is added to the vial. The solution is mixed on a vortex genie for approximately 30 seconds. If the solution looks clear, additional drug is added. No additional drug is added to solutions which appear to be clear at a concentration of greater than 50 mg/mL. The study is done in duplicate. Once the solutions are prepared, the initial pH of the samples are measured. The solutions are then protected from light, and placed on a shaker. The solutions are agitated for 24 to 96 hours at ambient conditions. The vials are then removed from the orbital shaker, and the final pH of the solutions is measured for each sample. The solutions are then filtered, and analyzed by HPLC."}, "[2]": {"test": "pH stability testing at 75° C. (HPLC)", "type": "physicochemical", "experimental": "(§1) The drug is dissolved in different pH buffers as outlined in Table 20. One hundred mL of each solution is prepared in a volumetric flask. Each solution is filtered through a 0.22 um filter. Approximately, four mL of the above solution is placed in 5 ml ampoules and sealed by a propane torch. The pH of the solution is determined at time zero and at each time interval. All the ampoules are placed in a 75° C. constant temperature oven. Any color changes or precipitation in the solution during the sample collection is visually observed. Concentration of the drug is determined at time zero and other time intervals by HPLC.\nas §1, with “prepared in volumetric flask.” for “prepared in a volumetric flask.”, “filtered through 0.22 um” for “filtered through a 0.22 um”, “by HPLC. The pH and drug content of each sample are determined.” for “by HPLC.”\nThe data from the pH stability study is analyzed by plotting Log (conc.) versus time.\nThe rate constant for the degradation is determined using a linear regression at each individual pH."}}, "note": "Entries after “also recorded” stand apart in the source; their conditions may differ. Like-named read-outs stand apart in the source and are kept apart here.", "data": [{"smiles": "O=C([O-])c1ccc(/C=C/S(=O)(=O)Cc2ccc(Cl)cc2)cc1.[Na+]", "note": "[ON.1210.Na, (E)-4-Carboxystyryl-4-chlorobenzylsulfone, Sodium Salt]", "values": [{"measurement": "Solubility", "setting": "[1]; pH 4, aqueous buffer", "result": 0.154, "unit": "µg/mL"}, {"measurement": "Solubility", "setting": "[1]; pH 5, aqueous buffer", "result": 37.9, "unit": "µg/mL"}, {"measurement": "Solubility", "setting": "[1]; pH 6, aqueous buffer", "result": 715, "unit": "µg/mL"}, {"measurement": "Solubility", "setting": "[1]; pH 7.4, aqueous buffer", "result": 11100, "unit": "µg/mL"}, {"measurement": "Solubility", "setting": "[1]; pH 8, aqueous buffer", "result": 16800, "unit": "µg/mL"}, {"measurement": "Solubility", "setting": "[1]; pH 9, aqueous buffer", "result": 23300, "unit": "µg/mL"}, {"measurement": "pH-stability profile", "setting": "[2]; aqueous buffers pH 4 to 9, 75° C., Sodium Salt", "result": "better stability at neutral and biological pH but degradation is rapid under acidic condition; also recorded: dramatically improved as the pH is increased towards the neutral pH"}, {"measurement": "order of the degradation reaction", "setting": "[2]; aqueous buffers, 75° C., Sodium Salt", "result": "pseudo-first-order rate; also recorded: pseudo first order reaction"}, {"measurement": "stability in an aqueous environment", "setting": "[2]; biological pH", "result": "quite stable in an aqueous environment at biological pH"}, {"measurement": "Kobs, first order rate constant for the degradation", "setting": "[2]; pH 4.0, 75° C.", "result": 0.0621, "unit": "day⁻¹"}, {"measurement": "Concentration of the ON.1210.Na determined by HPLC during the stability study", "setting": "[2]; pH 4 buffer, 75° C., 0 hours, pH of the solution 4.03", "result": 2704.7, "unit": "ng/mL"}, {"measurement": "Concentration of the ON.1210.Na determined by HPLC during the stability study", "setting": "[2]; pH 4 buffer, 75° C., 1 day, pH of the solution 4.3", "result": 2659, "unit": "ng/mL"}, {"measurement": "Concentration of the ON.1210.Na determined by HPLC during the stability study", "setting": "[2]; pH 4 buffer, 75° C., 3 days, pH of the solution 4.12", "result": 2633.1, "unit": "ng/mL"}, {"measurement": "Concentration of the ON.1210.Na determined by HPLC during the stability study", "setting": "[2]; pH 4 buffer, 75° C., 5 days, pH of the solution 4.5", "result": 2734.4, "unit": "ng/mL"}, {"measurement": "Concentration of the ON.1210.Na determined by HPLC during the stability study", "setting": "[2]; pH 4 buffer, 75° C., 42 days, pH of the solution 3.84", "result": 117.1, "unit": "ng/mL"}, {"measurement": "Concentration of the ON.1210.Na determined by HPLC during the stability study", "setting": "[2]; pH 4 buffer, 75° C., 54 days, pH of the solution 3.74", "result": 161.4, "unit": "ng/mL"}, {"measurement": "Kobs, first order rate constant for the degradation", "setting": "[2]; pH 5.0, 75° C.", "result": 0.0295, "unit": "day⁻¹"}, {"measurement": "Concentration of the ON.1210.Na determined by HPLC during the stability study", "setting": "[2]; pH 5 buffer, 75° C., 0 hours, pH of the solution 5.03", "result": 4457.7, "unit": "ng/mL"}, {"measurement": "Concentration of the ON.1210.Na determined by HPLC during the stability study", "setting": "[2]; pH 5 buffer, 75° C., 1 day, pH of the solution 5.18", "result": 4394, "unit": "ng/mL"}, {"measurement": "Concentration of the ON.1210.Na determined by HPLC during the stability study", "setting": "[2]; pH 5 buffer, 75° C., 3 days, pH of the solution 5.11", "result": 4429.5, "unit": "ng/mL"}, {"measurement": "Concentration of the ON.1210.Na determined by HPLC during the stability study", "setting": "[2]; pH 5 buffer, 75° C., 5 days, pH of the solution 5.14", "result": 4471.4, "unit": "ng/mL"}, {"measurement": "Concentration of the ON.1210.Na determined by HPLC during the stability study", "setting": "[2]; pH 5 buffer, 75° C., 10 days, pH of the solution 5.2", "result": 1017, "unit": "ng/mL"}, {"measurement": "Concentration of the ON.1210.Na determined by HPLC during the stability study", "setting": "[2]; pH 5 buffer, 75° C., 17 days, pH of the solution 5.21", "result": 838.2, "unit": "ng/mL"}, {"measurement": "Concentration of the ON.1210.Na determined by HPLC during the stability study", "setting": "[2]; pH 5 buffer, 75° C., 28 days, pH of the solution 4.71", "result": 1334, "unit": "ng/mL"}, {"measurement": "Concentration of the ON.1210.Na determined by HPLC during the stability study", "setting": "[2]; pH 5 buffer, 75° C., 35 days, pH of the solution 4.93", "result": 2813.7, "unit": "ng/mL"}, {"measurement": "Concentration of the ON.1210.Na determined by HPLC during the stability study", "setting": "[2]; pH 5 buffer, 75° C., 42 days", "result": 1304.9, "unit": "ng/mL"}, {"measurement": "Concentration of the ON.1210.Na determined by HPLC during the stability study", "setting": "[2]; pH 5 buffer, 75° C., 54 days, pH of the solution 4.76", "result": 953.9, "unit": "ng/mL"}, {"measurement": "Kobs, first order rate constant for the degradation", "setting": "[2]; pH 6.0, 75° C.", "result": 0.0069, "unit": "day⁻¹"}, {"measurement": "Concentration of the ON.1210.Na determined by HPLC during the stability study", "setting": "[2]; pH 6 buffer, 75° C., 0 hours, pH of the solution 6.02", "result": 22390, "unit": "ng/mL"}, {"measurement": "Concentration of the ON.1210.Na determined by HPLC during the stability study", "setting": "[2]; pH 6 buffer, 75° C., 1 day, pH of the solution 6.12", "result": 22300, "unit": "ng/mL"}, {"measurement": "Concentration of the ON.1210.Na determined by HPLC during the stability study", "setting": "[2]; pH 6 buffer, 75° C., 3 days, pH of the solution 6.21", "result": 22360, "unit": "ng/mL"}, {"measurement": "Concentration of the ON.1210.Na determined by HPLC during the stability study", "setting": "[2]; pH 6 buffer, 75° C., 5 days, pH of the solution 6.14", "result": 22494.5, "unit": "ng/mL"}, {"measurement": "Concentration of the ON.1210.Na determined by HPLC during the stability study", "setting": "[2]; pH 6 buffer, 75° C., 10 days, pH of the solution 6.17", "result": 19086.3, "unit": "ng/mL"}, {"measurement": "Concentration of the ON.1210.Na determined by HPLC during the stability study", "setting": "[2]; pH 6 buffer, 75° C., 17 days, pH of the solution 6.21", "result": 18150, "unit": "ng/mL"}, {"measurement": "Concentration of the ON.1210.Na determined by HPLC during the stability study", "setting": "[2]; pH 6 buffer, 75° C., 28 days, pH of the solution 5.81", "result": 17540.1, "unit": "ng/mL"}, {"measurement": "Concentration of the ON.1210.Na determined by HPLC during the stability study", "setting": "[2]; pH 6 buffer, 75° C., 35 days, pH of the solution 5.92", "result": 17397.9, "unit": "ng/mL"}, {"measurement": "Concentration of the ON.1210.Na determined by HPLC during the stability study", "setting": "[2]; pH 6 buffer, 75° C., 42 days, pH of the solution 5.94", "result": 16000, "unit": "ng/mL"}, {"measurement": "Concentration of the ON.1210.Na determined by HPLC during the stability study", "setting": "[2]; pH 6 buffer, 75° C., 54 days, pH of the solution 5.90", "result": 14717.4, "unit": "ng/mL"}]}]}
